This note sets out measurements from PubChem BioAssay (NCI).

Test in all cases: DTP human tumour cell line panel, 48 h
The test system of assay [1] is SF-295 CNS.
Assay [2] has as its system EKVX NSCLC.
For assay [3], the system named is OVCAR-3 ovarian.
The test system of assay [4] is M14 melanoma.
For assay [5], the system named is CCRF-CEM leukemia.
Assay [6] concerns NCI-H226 lung.
The test system of assay [7] is CAKI-1 renal.
Assay [8] deals with SNB-19 CNS.
In assay [9] the test system is HCT-116 colon.
Assay [10] concerns SR leukemia.

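These data come from cells grown in 96-well plates and exposed to compound for 48 hours at five concentrations. GI50 is the concentration that inhibits growth by half. TGI: concentration producing complete growth inhibition.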 A value given as a limit tells only on which side of the number the result lay.

The TGI is the concentration giving total growth inhibition. The low end stands for more potent growth arrest, the high end for less potent growth arrest. For the compound `CN1CC2(CCCCC2)C(O)C12C=CCCC2` (stereo not given), the TGI in assay [1], in assay [2], in assay [3], in [4], in assay [5] and in assay [6] was above 100 µM in each case. Besides, the TGI in assay [7] and in assay [8] was above 100 µM in each case.

By GI50 is commonly meant the concentration giving 50% growth inhibition. On to `CC(=O)[CH-]C(=O)c1ccccc1.CC(=O)[CH-]C(=O)c1ccccc1.[O]=[U+2]=[O]`, for which the GI50 is 6.55 µM in assay [1]; 32.8 µM in [2]; 88.2 µM in assay [3]; 35.8 µM in assay [4]; 27.8 µM in assay [5]; 39.2 µM in assay [7]. Also, the TGI in assay [1], in assay [2], in assay [3], in assay [4], in assay [5] and in assay [7] was above 100 µM in each case.

Turning to `O=c1c2ccccc2nc(-c2ccccc2)n1NCC1(O)OCC(O)C(O)C1O` (stereo not given), the TGI in assay [1], in assay [2], in assay [9], in assay [3], in assay [4] and in [5] was above 100 µM each time. The TGI in assay [6], in assay [7] and in assay [8] was above 100 µM each time.

As to `CO[C@H]1C=C[C@]23c4cc5c(cc4CN(CC2O)[C@@H]3C1)OCO5` (stereo not given in full), the TGI in [1] is 4.14 µM; in assay [2], 52.2 µM; in assay [9], 19.3 µM; in assay [3], 22.3 µM; in assay [4], above 100 µM; in [6] it was 61.3 µM. Further, the TGI is above 100 µM in assay [7] and 40.9 µM in assay [8].

For the compound `S=C(Nc1ccccc1)Nc1[nH]c(=S)sc1-c1nc2ccccc2[nH]1`, the TGI in assay [1] was above 100 µM; in assay [2], above 100 µM; in assay [3], above 100 µM; in [4], above 100 µM; in assay [5], above 100 µM; in assay [6] it was 29.4 µM. In addition, the TGI in [7] and in [8] was above 100 µM throughout.

For the compound `CN1CCCC1c1cccnc1.O=C(O)c1ccccc1O.O=C([O-])c1ccccc1[OH2+].O=C([O-])c1ccccc1[OH2+].O=C([O-])c1ccccc1[OH2+].[Mn+2]` (stereo not given), the GI50 in [1] is above 100 µM; in assay [2], above 100 µM; in [9], above 100 µM; in assay [3], 11.4 µM; in assay [4], above 100 µM; in assay [5] it was 23.3 µM. Also, the GI50 in assay [6], in [7] and in [8] was above 100 µM throughout. The TGI in assay [1] was above 100 µM; in [2], above 100 µM; in [9] it was above 100 µM; in assay [3], 39.3 µM; in [4], above 100 µM; in assay [5], above 100 µM. The TGI in [6], in assay [7] and in [8] was above 100 µM each time.

In the case of `CC(C)c1ccc(/C=C(\NC(=O)c2ccccc2)c2nc3ccccc3[nH]2)cc1`, the TGI is 90 µM in assay [2]; above 100 µM in [9]; above 100 µM in assay [3]; above 100 µM in [4]; above 100 µM in [5]; above 100 µM in [6]. The concentration for total growth inhibition (TGI) in [7] and in [8] was above 100 µM in each case.

`COC(=O)/C(C#N)=C1\N=NNN1CCCN1CCOCC1`: the TGI in assay [1], in assay [2], in assay [9], in assay [3], in [4] and in assay [5] was above 100 µM each time. Also, the TGI in [6], in [7] and in assay [8] was above 100 µM each time.

As for `Cc1nnc([S-])s1.[Au+].c1ccc([PH+](c2ccccc2)c2ccccc2)cc1`, the GI50 is 1.74 µM in [1]; 1.73 µM in [3]; 1.62 µM in [4]; 1.67 µM in assay [10]; 2.04 µM in assay [5]; 1.64 µM in assay [7]. Also, in assay [8], the GI50 is 1.6 µM. The TGI in [1] was 3.21 µM; in assay [3], 3.14 µM; in assay [4] it was 3.56 µM; in assay [10], above 100 µM; in assay [5] it was 6.91 µM; in assay [7], 3 µM. In addition, the TGI in assay [8] was 2.98 µM.

Take `O=C(OCc1ccccc1CN1CCOCC1)c1ccc(Br)cc1`: the TGI was above 100 µM in assay [2]; above 100 µM in assay [9]; 83.2 µM in assay [3]; above 100 µM in [4]; above 100 µM in [6]; above 100 µM in assay [8].

In the case of `O=C(CCCCCCCCC(=O)OCC1OC(n2cnc3c(=O)[nH]cnc32)C(O)C1O)OCC1OC(n2cnc3c(=O)[nH]cnc32)C(O)C1O` (stereo not given), the TGI in assay [1], in [2], in assay [9], in assay [3], in [4] and in assay [5] was above 100 µM throughout. For the same compound, the TGI in assay [6], in [7] and in [8] was above 100 µM in each case.

As for `COc1cc2c3c(c1OC)-c1ccccc1C(C(OC(C)=O)c1ccccc1)C3N(C)CC2` (stereo not given), the total growth inhibition concentration (TGI) in assay [1], in [2], in assay [9], in assay [3], in assay [4] and in assay [5] was above 100 µM throughout. Also, the TGI in assay [6], in assay [7] and in [8] was above 100 µM in each case.

On to `CCN(CC)CCOc1ccc(/C=C2\C[C@H]3[C@@H]4CC=C5C[C@@H](OC(C)=O)CC[C@]5(C)[C@H]4CC[C@]3(C)[C@H]2OC(C)=O)cc1OC`, for which the GI50 in assay [1] is 12.2 µM; in assay [2], 6.84 µM; in [9], 9.76 µM; in assay [3], 10.3 µM; in [4], 7.62 µM; in assay [5] it was 0.361 µM. The values for the GI50 in assay [6], in assay [7] and in [8] were 11.3 µM, 9.21 µM and 11.8 µM, respectively. For the same compound, the TGI is 24.3 µM in assay [1]; 14.5 µM in assay [2]; 18.6 µM in assay [9]; 22.1 µM in assay [3]; 17.2 µM in assay [4]; 6.77 µM in assay [5]. For the same compound, the TGI in [6] came to 31.7 µM; in assay [7] it was 18.6 µM; in [8], 30.1 µM.

In the case of `CC[C@@]1(OC(=O)CN)C(=O)OCc2c1cc1n(c2=O)Cc2cc3cc(N)ccc3nc2-1`, the GI50 was below 0.01 µM in assay [1]; 0.465 µM in assay [2]; 0.181 µM in assay [3]; below 0.01 µM in assay [4]; below 0.01 µM in [5]; below 0.0152 µM in [6]. Further, the GI50 in assay [7] and in [8] was below 0.01 µM throughout. Moreover, the TGI is above 100 µM in assay [1]; above 100 µM in [2]; 0.848 µM in assay [3]; 0.122 µM in assay [4]; 0.388 µM in [6]; 0.0398 µM in assay [7]. In assay [8], the TGI is above 100 µM.

Regarding `O=C1[C@H]2C(c3ccccc3)=NN(C(=O)c3ccccc3)[C@H]2C(=O)N1c1ccccc1`, the TGI in assay [1], in assay [2], in assay [9], in [3], in assay [4] and in assay [5] was above 100 µM each time. Besides, the TGI in [6] and in assay [8] was above 100 µM each time.

As to `Cc1nnc2n1N=C(CC(=O)c1ccc(O)cc1O)CN2N`, the TGI in [1], in assay [2], in assay [9], in assay [4], in assay [5] and in assay [7] was above 100 µM in each case. Further, the TGI in assay [8] is above 100 µM.

With `O=C(O)c1cc(Cl)cc(NC(=O)C(Cl)Cl)c1Cl`, the TGI in [1], in [2], in assay [9], in [3], in assay [4] and in assay [5] was above 100 µM throughout. The TGI in assay [6], in assay [7] and in assay [8] was above 100 µM in each case.

For `CCOC(=O)CCC1(C(=O)OC)CCCC1=O` (stereo not given), the TGI in assay [1], in [2], in assay [9], in assay [3] and in [8] was above 100 µM throughout.

`COc1cc(C(c2cc3c(cc2O)OCO3)N2CCCC2)cc(OC)c1OC` (stereo not given): the TGI in assay [1] is 36 µM; in [2], 30 µM; in assay [9], 29.8 µM; in [3] it was 34.9 µM; in assay [4], above 100 µM; in assay [5], 5.95 µM. Besides, the TGI is 33.8 µM in [6], 27 µM in assay [7] and 38.2 µM in assay [8].

Regarding `Cc1ccc(C2=Nc3c(N)ncnc3NC(c3cccc(Nc4ccnc5cc(C(F)(F)F)ccc45)c3)C2)cc1` (stereo not given), the GI50 in assay [1] was 2.33 µM; in assay [2] it was 3.95 µM; in assay [9] it was 2.86 µM; in assay [3], 3.47 µM; in assay [4], 2.11 µM; in [5], 3.85 µM. Besides, the GI50 in [6] was 15.2 µM; in assay [7], 3.15 µM; in [8], 6.71 µM. Also, the TGI in [1] was 6.88 µM; in [2], above 100 µM; in assay [9] it was 10.5 µM; in assay [3], 15.1 µM; in [4] it was 5.29 µM; in assay [5] it was above 100 µM. For the same compound, the TGI is above 100 µM in assay [6], 15.2 µM in assay [7] and above 100 µM in assay [8].

Take `CC(C)OP(=O)(CP(=O)(OC(C)C)OC(C)C)OC(C)C.[CH3][Sn]([Br])([Br])[Br]`: the GI50 in assay [1], in assay [2], in [3], in assay [5], in assay [6] and in [7] was above 100 µM throughout. Besides, the GI50 in [8] was above 100 µM. The TGI in assay [1], in assay [2], in assay [3], in [5], in [6] and in assay [7] was above 100 µM each time. The compound further showed a TGI in assay [8] above 100 µM.

Regarding `O=C1OCC(C(=O)c2cccc(O)c2)C1=O` (stereo not given), the TGI in assay [1], in assay [2], in assay [9], in assay [3], in [4] and in [6] was above 100 µM throughout. In addition, the total growth inhibition concentration (TGI) in assay [7] and in assay [8] was above 100 µM throughout.

In the case of `CCC1OCCN1C(C)C` (stereo not given), the TGI is above 100 µM in assay [1]; 86.8 µM in assay [2]; above 100 µM in [9]; above 100 µM in assay [10]; above 100 µM in [5]; above 100 µM in assay [8].

Regarding `CC1OC(=O)N(CCCC=C2SCCCS2)C1=O` (stereo not given), the TGI in [1], in assay [2], in assay [9], in [3], in assay [4] and in assay [5] was above 100 µM in each case. The TGI in [6] and in assay [8] was above 100 µM in each case.

In the case of `COc1c(O)c(OC)c(C(=O)/C=C/c2ccccc2)c(O)c1OC`, the TGI in assay [1] was above 100 µM; in assay [2], above 100 µM; in assay [9] it was 34.5 µM; in assay [3] it was 51.3 µM; in [4] it was above 100 µM; in assay [5], above 100 µM. Moreover, the TGI in [6], in assay [7] and in assay [8] was above 100 µM each time.

In the case of `c1ccc2c(c1)CCCc1cc3ccccc3nc1-2`, the TGI in assay [1], in [2], in assay [9], in assay [3], in [4] and in assay [5] was above 100 µM each time. The TGI in [7] and in assay [8] was above 100 µM in each case.
